“Also recorded” adds a separate entry of the source. Read-outs that look alike come from different tables or passages of the source.
Columns and labels:
[1] = assay type: physicochemical; conditions: octanol/distilled water (pH 5.5), mean ± StD
Procedure: Lipophilicity of the obtained 2,4-DNP derivatives was measured by octanol–water equilibrium method. Before the experiment, we mixed octanol and water in a flask, shook it vigorously, and then waited for the two phases separation. After reaching of equilibrium, the two phases are mutually saturated with one another. Next, 0.5 mg of each test compound was dissolved in 1 mL of octanol phase, and then 1 mL of distillated water phase was added (pH 5.5) and properly stirred for 1 min three times. The mixture was incubated under vigorous stirring for 1 h. Next, the mixture was centrifugated to separate octanol–water phases. The concentration of the compound was determined in octanol and water using HPLC method. The octanol–water partition coefficient was estimated as follows:(1) LogP=Log[C]octanol/[C]water
Concentration of 2,4-DNP and its esters was measured using high-performance liquid chromatography (HPLC) (Knauer Smart line, Berlin, Germany) with UV-detector and a reversed-phase shim-pack 100-5-C18 column (Kromasil, […], particle size 5 μm). The mobile phase was a mixture of acetonitrile and 0.1% citric acid water solution (60/40, v/v). The mobile phase flow-rate was 0.8 mL/min, the injection volume was […], and the detection wavelength was set at 275 nm. Chromatograms were analyzed using ChromGate version 3.3.2 software (Berlin, Germany). The retention time is 4.5 min for 2,4-DNP and 6.5 min for esters.

AML12 cells = test: in vitro; assay type: cell-based, mouse; conditions: AML12, 24 h incubation, WST-1, free compounds in 1% DMSO; read-out: IC50 (cytotoxicity)
Procedure: (§1) Murine breast cancer cell line expressing luciferase (4T1-Luc) and hepatocytes isolated from the normal liver of a 3-month-old mouse (AML12) were purchased from ATCC, (CRL-2539-LUC2 and CRL-2254). The cells were cultivated in RPMI 1640 or DMEM-F12 with 10% FBS, 4.5 g/L glucose, 100 U/mL penicillin, 100 µg/mL streptomycin and 0.25 µg/mL Gibco amphotericin at 37 °C, 5% CO2.
(§2) 4T1-Luc or AML12 cells were seeded in a 96-well plate (1 × 10^4 cells/well) in 200 µL/well of complete RPMI or DMEM-F12 medium and incubated at 37 °C with 5% CO2 for 48 h. Then, the medium was replaced with 100 µL/well RPMI or DMEM-F12 medium in the absence (control) or presence of various amounts of the tested compounds and incubated at 37 °C with 5% CO2 for 24 h; 10 µL/well WST-1 solution (CELLPRO-RO Roche, St. Louis, MO, USA) was added to each well and incubated under culture conditions for 2 h. The absorbance of the samples was measured at 450 nm.

4T1-Luc cells [2] = assay type: cell-based, murine; conditions: 200 µM, 1% DMSO; for ATP synthesis inhibition (decrease of luminescence): free compounds, 2 h and 4 h
Procedure: ATP synthesis in real time in vitro was monitored by modified luciferin–luciferase assay using 4T1-Luc cells expressing luciferase. Briefly, 4T1-Luc cells were seeded in black 96-well plates (Greiner, France) (1 × 10^4 cells/well) 48 h before the experiment. Cell medium was replaced with the mixtures (150 µL/well) of D-luciferin (150 µg/mL, saturating concentration) alone (control) and with examined substance (200 µM of free 2,4-DNP or its derivatives or their liposomal forms) in RPMI 1640 medium (10% FBS, 4.5 g/L glucose, 100 U/mL penicillin, 100 µg/mL streptomycin и 0.25 µg/mL Gibco amphotericin), plate was put into the Luminometer chamber (EnSpire multimode plate reader, Perkin Elmer, USA), and kinetic of luciferin–luciferase reaction was detected at 37 °C (flashes/time 0.1 s). 2,4-DNP esters were dissolved in DMSO before the use. The total concentration of DMSO in final solution per well was 1%.
The inhibition effect was expressed as (3) Decrease of luminescence=[RLU]max−[RLU]t/[RLU]max×100%, where [RLU]max—relative luminescence units at the maximum of the kinetic profile; [RLU]t—relative luminescence units at certain time point.

[3] = pH 7.4
Procedure: Procedure: All samples were dispersed in 10 mM PBS (pH = 7. 4). Then the aliquots were incubated at a room tempera-
ture and at 65 °C for 1 h. After that we made several TLC for each sample representing heated and non-heated sub-

4T1-Luc cells [4] = test: cells; assay type: cell-based, murine; conditions: Mus musculus, read-out: IC50 (cytotoxicity)
Procedure: as §1, §2

in vitro = assay type: cell-based, mouse; conditions: mouse; AML12, 24 h incubation, WST-1, free compounds in 1% DMSO; read-out: IC50 (cytotoxicity)
Procedure: as §1, §2

luciferase = luciferase (Photinus pyralis, UniProt P08659); test: Control: addition to the luciferin–luciferase mixture; assay type: biochemical; conditions: 200 µM added to the luciferin–luciferase mixture; data are not presented
Chain of luciferase (P08659 whole entry): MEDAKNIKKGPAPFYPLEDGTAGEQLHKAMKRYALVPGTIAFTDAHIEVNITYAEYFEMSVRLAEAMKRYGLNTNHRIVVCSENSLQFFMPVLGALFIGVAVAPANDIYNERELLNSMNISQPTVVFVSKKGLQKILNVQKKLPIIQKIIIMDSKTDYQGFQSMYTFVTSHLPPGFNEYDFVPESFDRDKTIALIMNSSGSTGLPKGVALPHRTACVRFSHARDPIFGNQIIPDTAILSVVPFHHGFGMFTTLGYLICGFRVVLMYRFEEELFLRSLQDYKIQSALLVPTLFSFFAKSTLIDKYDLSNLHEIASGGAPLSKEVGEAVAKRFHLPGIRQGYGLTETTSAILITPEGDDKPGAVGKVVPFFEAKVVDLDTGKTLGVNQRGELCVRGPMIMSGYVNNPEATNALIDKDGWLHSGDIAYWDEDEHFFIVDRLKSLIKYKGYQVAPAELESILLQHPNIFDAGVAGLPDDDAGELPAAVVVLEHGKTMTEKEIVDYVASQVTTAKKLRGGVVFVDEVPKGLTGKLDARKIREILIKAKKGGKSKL

Structure (SMILES) | LogPoct [1] | ATP synthesis inhibition (decrease of luminescence) (4T1-Luc cells [2]) | ATP level after free carboxylic acids (4T1-Luc cells [2]) | further results
CCC(=O)Oc1ccc([N+](=O)[O-])cc1[N+](=O)[O-] [2,4-DNP-C3, 2,4-Dinitrophenol Propionic Acid Ester] | 1.91 ± 0.24 | higher inhibition effects in comparison to the free 2,4-DNP |  | IC50 (AML12 cells): ~200 µM; Ester stability (hydrolysis) [3]: most unstable ester
O=[N+]([O-])c1ccc(O)c([N+](=O)[O-])c1 [2,4-DNP, 2,4-dinitrophenol] | 1.61 ± 0.30 |  |  | IC50 (4T1-Luc cells [4]; 24 h): ~400 µM; IC50 at 24 h (in vitro): 500 to 600 µM; Luciferase activity (luciferase): did not influence the luciferase activity
CCCCCC(=O)Oc1ccc([N+](=O)[O-])cc1[N+](=O)[O-] [2,4-DNP-C6, 2,4-Dinitrophenol Caproic Acid Ester] | 3.07 ± 0.31 | higher inhibition effects in comparison to the free 2,4-DNP; also recorded: sustained inhibition of ATP synthesis |  | IC50 (AML12 cells): ~200 µM
CCC(=O)O [propionic acid, Propionic acid, reference compound] |  |  | did not show an increase in the ATP level | 
CCCCCCCCCCCCCCCC(=O)Oc1ccc([N+](=O)[O-])cc1[N+](=O)[O-] [2,4-DNP-C16, 2,4-DNP Palmitic Acid Ester] | 5.18 ± 0.79 | neglectable decrease in the ATP level |  | IC50 (4T1-Luc cells [4]; 24 h incubation, WST-1, free compounds in 1% DMSO): 100 to 150 µM; IC50 (in vitro): ~200 µM
CCCCCC(=O)O [caproic acid, Hexanoic acid, reference compound] |  |  | did not show an increase in the ATP level | 
CCCCCCCCCCCCCCCC(=O)O [palmitic acid, Palmitic acid, reference compound] |  |  | did not show an increase in the ATP level | 
